Measurements published in US20250099448A1, “HETEROCYCLIC COMPOUNDS” (Hoffmann-La Roche Inc., priority 2022, published 2025).

Molecular target: T1, MAGL protein (Homo sapiens, UniProt Q99685)
T1 sequence (Q99685 1-303): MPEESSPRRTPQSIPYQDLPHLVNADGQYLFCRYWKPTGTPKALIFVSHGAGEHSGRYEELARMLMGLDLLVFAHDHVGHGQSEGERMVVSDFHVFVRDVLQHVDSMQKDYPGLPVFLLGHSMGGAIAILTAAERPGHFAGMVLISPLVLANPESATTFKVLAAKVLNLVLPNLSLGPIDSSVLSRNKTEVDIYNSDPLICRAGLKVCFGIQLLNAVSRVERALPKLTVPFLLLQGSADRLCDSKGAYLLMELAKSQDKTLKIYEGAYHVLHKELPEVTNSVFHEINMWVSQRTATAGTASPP
Assay: 2-AG assay: MAGL inhibitory activity by hydrolysis of 2-arachidonoylglycerol to arachidonic acid, followed by mass spectrometry
Format: biochemical
Conditions: 8 μM 2-arachidonoylglycerol, 15 min preincubation, 30 min reaction at RT, RapidFire MS readout
Summary of the method: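 Activity was measured by RapidFire SPE–triple-quad MS as the ratio of arachidonic acid to d8-arachidonic acid after 2-AG hydrolysis (8 μM substrate, 30 min, RT, acetonitrile quench). Compounds, tested from 12.5 μM down to […], were first preincubated 15 min with MAGL in TRIS/EDTA/Tween-20 buffer containing 2.5% DMSO.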

| SMILES | IC50 |
| --- | --- |
| O=C(N1CC2(CC(Cn3cc(C(F)(F)F)cn3)C2)C1)N1CC2(CC(c3nc(C4(F)CC4)n[nH]3)C2)C1 [compound 523] | 0.53 nM |
| O=C(N1CC2(CC(NS(=O)(=O)c3ccc(C(F)(F)F)cc3)C2)C1)N1CC2(CC(c3nnc(C4CC4)[nH]3)C2)C1 [compound 223] | 0.33 nM |
| Cc1cc(C(F)(F)F)nn1CC1CC2(C1)CN(C(=O)N1CC3(CC(c4nc(C5CC5)n[nH]4)C3)C1)C2 [compound 445] | 0.24 nM |
| CS(=O)(=O)c1cc(F)ccc1OC1CCC2(CC1)CN(C(=O)N1CC3(CC(c4nnc(C5CC5)[nH]4)C3)C1)C2 [compound 355] | 8.86 nM |
| O=C(N1CC2(CC(c3ccc(C(F)(F)F)cc3)C2)C1)N1CC2(CC(c3nnc(C4CC4)[nH]3)C2)C1 [compound 940] | 0.58 nM |
| O=C(N1CC(c2cnc(CNC3(C(F)(F)F)CC3)cn2)C1)N1CC2(CC(c3nc(C4CC4)n[nH]3)C2)C1 [compound 443] | 2.47 nM |
| CP(C)(=O)Cc1ccc(C2CN(C(=O)N3CC4(CC(c5nnc(C6CC6)[nH]5)C4)C3)C2)cc1 [compound 381] | 0.69 nM |
| Cn1nc(CC2CC3(C2)CN(C(=O)N2CC4(CC(c5nc(C6(O)CC6)n[nH]5)C4)C2)C3)cc1C(F)(F)F [compound 491] | 0.34 nM |
| O=C(N1CC2(CCC(Cc3ncc(F)cc3F)C2)C1)N1CC2(CC(c3nnc(C4CC4)[nH]3)C2)C1 (centres unmarked) [compound 147] | 0.29 nM |
| CN(c1ccccc1)c1ccc(C2CN(C(=O)N3CC4(CC(c5nnc(C6CC6)[nH]5)C4)C3)C2)cn1 [compound 383] | 2.09 nM |
| O=C(N1CC2(CC(c3nnc(C4CC4)[nH]3)C2)C1)N1CC2(CN(Cc3ncc(C(F)(F)F)cn3)C2)C1 [compound 161] | 78.8 nM |
| O=C(N1CC2(CC(c3nc(C4CC4)n[nH]3)C2)C1)N1CC2(CN(Cc3nc(C(F)(F)F)cs3)C2)C1 [compound 430] | 5.22 nM |
| Cc1cc(C2CC2)nn1-c1ccc(C2CN(C(=O)N3CC4(CC(c5nc(C6(O)CC6)n[nH]5)C4)C3)C2)cc1 [compound 821] | 2 nM |
| O=C(N1CC2(CC(Cn3nccc3C(F)(F)F)C2)C1)N1CC2(CC(c3nc(C4CC4)n[nH]3)C2)C1 [compound 410] | 0.14 nM |
| O=C(N1CC(c2cnc(NCC3(C(F)(F)F)CC3)cn2)C1)N1CC2(CC(c3nc(C4(F)CC4)n[nH]3)C2)C1 [compound 503] | 0.69 nM |
| CS(=O)(=O)c1cncc(CC2CC3(C2)CN(C(=O)N2CC4(CC(c5nnc(C6CC6)[nH]5)C4)C2)C3)c1 [compound 120] | 42 nM |
| O=C(N1CC2(CCC(S(=O)(=O)c3ccc(C(F)(F)F)cc3)CC2)C1)N1CC2(CC(c3nc(C4(O)CC4)n[nH]3)C2)C1 [compound 550] | 9.81 nM |
| O=C(N1CC2(CC(Cc3cc(F)cc(C(F)(F)F)c3)C2)C1)N1CC2(CC(c3nc(C4COC4)n[nH]3)C2)C1 [compound 742] | 2.18 nM |
| CC(C)(C)c1ccc(C2CN(C(=O)N3CC4(CC(c5nc(C6CC6)n[nH]5)C4)C3)C2)cn1 [compound 399] | 2.63 nM |
| O=C(N1CC2(CC(Cn3cc(S(=O)(=O)C(F)(F)F)cn3)C2)C1)N1CC2(CC(c3nc(C4CC4)n[nH]3)C2)C1 [compound 951] | 0.28 nM |

| SMILES | IC50 |
| --- | --- |
| O=C(N1CC2(CC(c3nnc(C4CC4)[nH]3)C2)C1)N1CC2(CC(N3CC(C(F)(F)F)C3)C2)C1 [compound 83] | 25.7 nM |
| O=C(N1CC2(CC(c3nnc(C4CC4)[nH]3)C2)C1)N1CC2(C1)CN(S(=O)(=O)c1ccc(OC(F)(F)F)cc1)C2 [compound 91] | 4.05 nM |
| O=C(N1CC2(CC(c3nc(C4CC4)n[nH]3)C2)C1)N1CC2(CN(Cc3nc(C(F)(F)F)cs3)C2)C1 [compound 780] | 3.37 nM |
| N#Cc1ccc(CC2CC3(C2)CN(C(=O)N2CC4(CC(c5nc(C6(F)CC6)n[nH]5)C4)C2)C3)cc1C(F)(F)F [compound 569] | 0.09 nM |
| N=S(=O)(c1ccc(C2CN(C(=O)N3CC4(CC(c5nc(C6CC6)n[nH]5)C4)C3)C2)cc1)C1CC1 (centres unmarked) [compound 745] | 6.37 nM |
| O=C(N1CC2(CCC(Cc3ccc(C(F)(F)F)nc3)C2)C1)N1CC2(CC(c3nnc(C4CC4)[nH]3)C2)C1 (centres unmarked) [compound 152] | 0.43 nM |
| O=C(N1CC(C23CC(c4ccc(S(=O)(=O)C(F)(F)F)cc4)(C2)C3)C1)N1CC2(CC(c3nc(C4(O)CC4)n[nH]3)C2)C1 [compound 419] | 0.5 nM |
| O=C(N1CC2(CCC(NS(=O)(=O)C3CCC(F)(F)CC3)CC2)C1)N1CC2(CC(c3nnc(C4CC4)[nH]3)C2)C1 [compound 358] | 26.3 nM |
| O=C(N1CC2(CC(Oc3ccc(Cl)cn3)C2)C1)N1CC2(CC(c3nc(C4CC4)n[nH]3)C2)C1 [compound 619] | 0.79 nM |
| CC(C)(C)c1ncc(CN2CC3(C2)CN(C(=O)N2CC4(CC(c5nc(C6CC6)n[nH]5)C4)C2)C3)s1 [compound 415] | 4.43 nM |
| CS(=O)(=O)c1cnn(CC2CC3(C2)CN(C(=O)N2CC4(CC(c5nc(C6CC6)n[nH]5)C4)C2)C3)c1 [compound 953] | 11.2 nM |
| O=C(N1CC2(CC(Cc3cnc(C(F)(F)F)nc3)C2)C1)N1CC2(CC(c3nnc(C4CC4)[nH]3)C2)C1 [compound 20] | 0.74 nM |
| O=C(N1CC2(CCC(Cc3ccc(C(F)(F)F)cn3)CC2)C1)N1CC2(CC(c3nnc(C4(O)CC4)[nH]3)C2)C1 [compound 49] | 0.81 nM |
| O=C(N1CC2(CC(Cc3ccc(F)cc3C(F)(F)F)C2)C1)N1CC2(CC(c3nc(C4COC4)n[nH]3)C2)C1 [compound 754] | 0.43 nM |
| O=C(N1CC2(CC(c3nc(C4CC4)n[nH]3)C2)C1)N1CC2(CCN(Cc3ccc(C(F)(F)F)nc3)C2)C1 [compound 804] | 7.16 nM |
| Cc1cc(C23CC(C4CN(C(=O)N5CC6(CC(c7nc(C8CC(F)(F)C8)n[nH]7)C6)C5)C4)(C2)C3)[nH]n1 [compound 975] | 1550 nM |
| N=S(=O)(c1ccc(CC2CC3(C2)CN(C(=O)N2CC4(CC(c5nc(C6(O)CC6)n[nH]5)C4)C2)C3)cc1)C(F)(F)F (centres unmarked) [compound 555] | 0.34 nM |
| O=C(N1CC2(CCN(Cc3ccc(C(F)(F)F)cc3F)CC2)C1)N1CC2(CC(c3nnc(C4CC4)[nH]3)C2)C1 [compound 177] | 0.38 nM |
| O=C(N1CC2(CC(c3nc(C4CC4)n[nH]3)C2)C1)N1CC2(CC[C@H](Cc3ccc(S(=O)(=O)C(F)(F)F)cc3)C2)C1 [compound 667] | 0.09 nM |
| O=C(N1CC(C23CC(COc4cc(C(F)(F)F)ccn4)(C2)C3)C1)N1CC2(CC(c3nc(C4CC4)n[nH]3)C2)C1 [compound 942] | 1.32 nM |

| SMILES | IC50 |
| --- | --- |
| O=C(N1CC2(CC(Cn3cc(OC(F)F)ccc3=O)C2)C1)N1CC2(CC(c3nc(C4CC4)n[nH]3)C2)C1 [compound 724] | 3.8 nM |
| CS(=O)(=O)c1cc(F)ccc1CC1CC2(C1)CN(C(=O)N1CC3(CC(c4nnc(C5CCC5)[nH]4)C3)C1)C2 [compound 25] | 4.48 nM |
| O=C(N1CC(c2ccc(OCC3(C(F)(F)F)CC3)cc2)C1)N1CC2(CC(c3nnc(C4(O)CC4)[nH]3)C2)C1 [compound 375] | 1.89 nM |
| CC(C)(C)Cc1nnc(C23CC(C4CCN(C(=O)N5CC6(CC(c7nc(C8(O)CC8)n[nH]7)C6)C5)CC4)(C2)C3)o1 [compound 498] | 195 nM |
| O=C(N1CC2(CC(c3nc(C4CC4)n[nH]3)C2)C1)N1CC2(CN(Cc3nnn(CC(F)(F)F)n3)C2)C1 [compound 546] | 140 nM |
| CS(=O)(=O)c1ccccc1COC1CN(C(=O)N2CC3(CC(c4nnc(C5CC5)[nH]4)C3)C2)C1 [compound 335] | 467 nM |
| O=C(N1CC2(CC(Cc3cnn(C(F)(F)F)c3)C2)C1)N1CC2(CC(c3nc(C4CC4)n[nH]3)C2)C1 [compound 401] | 0.4 nM |
| O=C(N1CC2(CC(c3nc(C4CC4)n[nH]3)C2)C1)C12CC(Nc3cnc(C(F)(F)F)cn3)(C1)C2 [Example 473, [6-(3-cyclopropyl-1H-1,2,4-triazol-5-yl)-2-azaspiro[3.3]heptan-2-yl]-[3-[[5-(trifluoromethyl)pyrazin-2-yl]amino]-1-bicyclo[1.1.1]pentanyl]methanone] | 67.8 nM |
| O=C(N1CC2(CC(c3nnc(C4CC4)[nH]3)C2)C1)N1CC2(CCN(Cc3ccc(C(F)(F)F)nn3)C2)C1 [compound 183] | 31.3 nM |
| O=C(N1CC2(CCC(Cc3ccc(C(F)(F)F)nc3)CC2)C1)N1CC2(CC(c3nnc(C4(O)CC4)[nH]3)C2)C1 [compound 141] | 10.6 nM |
| COC(=O)c1cc(CC2CC3(C2)CN(C(=O)N2CC4(CC(c5nc(C6CC6)n[nH]5)C4)C2)C3)ccc1OC(F)(F)F [compound 912] | 0.07 nM |
| O=C(N1CC(C23CC(c4cncc(F)c4)(C2)C3)C1)N1CC2(CC(c3nc(C4CC4)n[nH]3)C2)C1 [compound 760] | 6.09 nM |
| O=C(N1CC2(CC(Cn3nccc3C(F)(F)F)C2)C1)N1CC2(CC(c3nc(C4(F)CC4)n[nH]3)C2)C1 [compound 457] | 0.31 nM |
| CS(=O)(=O)c1ccc(CC2CC3(C2)CN(C(=O)N2CC4(CC(c5nc(C(F)(F)F)n[nH]5)C4)C2)C3)cc1 [compound 791] | 17.6 nM |
| Cc1cc(C(F)(F)F)cnc1OC1CC2(CCN(C(=O)N3CC4(CC(c5nc(C6CC6)n[nH]5)C4)C3)CC2)C1 [Example 836] | 0.08 nM |
| CS(=O)(=O)c1ccc(CC2CCC3(C2)CN(C(=O)N2CC4(CC(c5nnc(C6CC6)[nH]5)C4)C2)C3)cc1C(F)(F)F (centres unmarked) [compound 153] | 0.27 nM |
| O=C(NCC1(C(F)(F)F)CC1)C1CC2(C1)CN(C(=O)N1CC3(CC(c4nnc(C5CC5)[nH]4)C3)C1)C2 [compound 359] | 28.4 nM |
| O=C(N1CC(NCc2ccc(C(F)(F)F)cc2F)C1)N1CC2(CC(c3nnc(C4(O)CC4)[nH]3)C2)C1 [compound 198] | 177 nM |
| N#Cc1ccc(=O)n(CC2CC3(C2)CN(C(=O)N2CC4(CC(c5nc(C6CC6)n[nH]5)C4)C2)C3)c1 [compound 480] | 12.1 nM |
